Data from patent US20260125381A1, “NOVEL Kv3 CHANNEL MODULATORS” (Merck Sharp & Dohme LLC, priority 2022, published 2026).

How the values were obtained:
Kv3.1 [1] = target: T1, Kv3.1 (Homo sapiens, UniProt P48547); experiment: FLIPR based Tl+ influx assay for positive modulators of Kv3.1; type: cell-based; parameters: expressed in transfected cells; host or cells: ARF (assay-ready frozen) cells; settings: thallium influx, FLIPR Tetra, 1536-well
T1 sequence (P48547 1-511): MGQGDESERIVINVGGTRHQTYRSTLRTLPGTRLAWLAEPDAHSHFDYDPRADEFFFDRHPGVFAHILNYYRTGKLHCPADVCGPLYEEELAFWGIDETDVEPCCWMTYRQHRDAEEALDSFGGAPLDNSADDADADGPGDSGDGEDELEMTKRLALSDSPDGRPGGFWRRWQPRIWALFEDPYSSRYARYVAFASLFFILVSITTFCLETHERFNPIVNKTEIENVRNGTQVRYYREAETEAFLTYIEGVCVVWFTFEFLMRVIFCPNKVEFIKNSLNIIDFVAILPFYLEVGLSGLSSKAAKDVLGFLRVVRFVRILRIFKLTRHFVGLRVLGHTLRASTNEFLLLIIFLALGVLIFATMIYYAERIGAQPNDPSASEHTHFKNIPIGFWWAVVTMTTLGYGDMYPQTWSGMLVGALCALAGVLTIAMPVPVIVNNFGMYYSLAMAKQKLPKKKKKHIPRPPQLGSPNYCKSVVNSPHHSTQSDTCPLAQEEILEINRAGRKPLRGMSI
Description: FLIPR Based Tl+ Influx Assay for Characterization of Positive Modulators of Kv3.1
Thallium influx assay was performed following manufacturer instruction with modifications. The major improvement was that the assay was miniaturized in 1536w assay plate to achieve ultrahigh throughput. The cell culture medium used for cell plating was the same medium mentioned above without selection antibiotics. Twenty to twenty four hours prior to the assay day, ARF cells in frozen vials were thawed in 37° C. water bath and washed once in the culture medium. The cell density was adjusted at 8.3×E5/ml and plated in 1536-w PDL coated plates (Aurora. US) at 4 μl/w, using Multidrop Combi (Thermo Fisher Scientific, Waltham, MA USA). Plates were then centrifuged at 300 g for two minutes for cells to achieve uniform settlement. The MicroClime plate lid (Labcyte Inc., San Jose, CA USA) was used to prevent evaporation from the edge wells and minimize the edge effect. Plates were incubated at 37° C., 5% CO2 overnight.
On the next day, the cell plates were further loaded with 3 μl/w of fluorescence dye solution containing all required components in the assay kit as instructed by the manufacturer protocol and incubated at room temperature for 60 min. Control and test compounds were then added into the cell plate by acoustic liquid transfer Echo (Labcyte Inc., San Jose, CA USA). After 10 min incubation with compounds, the cell plate was transferred to FLIPR Tetra platform (Molecular Devices, Sunnyvale, CA, USA) for recording fluorescence signal. The plate was recorded with excitation wavelength at 475-485 nm and emission wavelength at 510-545 nm. Data acquisition was taken at 1 Hz and completed in 130 seconds. After the first 10 s of recording, 3 μl of stimulus buffer was added into each well by liquid handler equipped in the FLIPR platform. The buffer contains 95 mM of Na2SO4 to maintain osmolarity, 7.5 mM of K2SO4 to depolarize membrane and activate the voltage gated Kv3.1 or 3.4 channels and 1 mM of Tl2SO4 to provide 2 mM Tl+ for Tl sensitive fluorescent signal. […]

Kv3.1 [2] = target: T1, Kv3.1; experiment: Automated whole cell patch clamp (Qube) on HEK cells overexpressing Kv3.1; type: cell-based; parameters: expressed in transfected cells; host or cells: HEK cells, stably transfected; settings: stably transfected HEK cells overexpressing Kv3.1
Description: In Vitro Characterization of Positive Modulators of Kv3.1 in Automated Patch Clamp
Automated whole cell patch-clamp was performed on the Qube using stably transfected HEK cell lines overexpressing Kv3.1 channels. Stable cell lines expressing Kv3.2 or Kv3.4 were used for counter-screening. Cells were held at −70 mV. Two depolarizing test pulses to −15 mV (200 ms) and +20 mV (200 ms) were given at a frequency of 0.1 Hz. Kv3.1 current amplitude elicited by test pulses was measured before and after compound addition at steady state. Ten concentrations were tested for each molecule. Raw data from Qube experiments were retrieved from the Qube database and analyzed using the Sophion Analyzer software and DR FIT Spotfire analysis. Apparent compound EC50 values, maximum potentiation, and EC2xIK (effective concentration at which a doubling in K current was observed) were determined using dose response 4 parameter curve fitting.

| SMILES | EC50 (Kv3.1 [1]) | EC50 (Kv3.1 [2]) |
| --- | --- | --- |
| Cc1cccc(Oc2ccc(-n3c(=O)[nH]c4cccnc43)cn2)c1C [Example 1, 3-(6-(2,3-dimethylphenoxy)pyridin-3-yl)-1,3-dihydro-2H-imidazo[4,5-b]pyridin-2-one] | 1630 nM | 4350 nM |
| Cc1ncc2[nH]c(=O)n(-c3cnc(Oc4cccc5c4C(C)(C)CO5)c(Cl)c3)c2n1 [Example 2, 9-(5-chloro-6-((3,3-dimethyl-2,3-dihydrobenzofuran-4-yl)oxy)pyridin-3-yl)-2-methyl-7,9-dihydro-8H-purin-8-one] | 146 nM | 213 nM |
| Cc1ncc2[nH]c(=O)n(-c3cnc(Oc4cccc5c4C(C)(C)CO5)c(Cl)c3C)c2n1 [Example 3, 9-(5-chloro-6-((3,3-dimethyl-2,3-dihydrobenzofuran-4-yl)oxy)-4-methylpyridin-3-yl)-2-methyl-7,9-dihydro-8H-purin-8-one] | 31.2 nM |  |
